Results from PubChem BioAssay (NCI).
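Results reflect a 48-hour exposure of cells in 96-well plates to compound at five concentrations. Definition used: TGI = concentration required for complete inhibition of growth.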

Assays:
Experiment in all cases: growth of human tumour cells (NCI), 48 h
786-0 renal = test system: 786-0 renal
HL-60(TB) leukemia = test system: HL-60(TB) leukemia
SNB-75 CNS = test system: SNB-75 CNS
K-562 leukemia = test system: K-562 leukemia
T-47D breast = test system: T-47D breast
HOP-62 NSCLC = test system: HOP-62 NSCLC
SK-MEL-5 melanoma = test system: SK-MEL-5 melanoma
HOP-92 NSCLC = test system: HOP-92 NSCLC
SK-MEL-2 melanoma = test system: SK-MEL-2 melanoma
MALME-3M melanoma = test system: MALME-3M melanoma
KM12 colon = test system: KM12 colon
SN12C renal = test system: SN12C renal
EKVX NSCLC = test system: EKVX NSCLC
HCT-116 colon = test system: HCT-116 colon
RPMI-8226 leukemia = test system: RPMI-8226 leukemia
HS 578T breast = test system: HS 578T breast
OVCAR-8 ovarian = test system: OVCAR-8 ovarian
MOLT-4 leukemia = test system: MOLT-4 leukemia
TK-10 renal = test system: TK-10 renal
OVCAR-4 ovarian = test system: OVCAR-4 ovarian
SF-539 CNS = test system: SF-539 CNS
SW-620 colon = test system: SW-620 colon
NCI-H522 lung = test system: NCI-H522 lung
OVCAR-3 ovarian = test system: OVCAR-3 ovarian
RXF 393 renal = test system: RXF 393 renal
MDA-MB-435 = test system: MDA-MB-435
SF-295 CNS = test system: SF-295 CNS
U251 CNS = test system: U251 CNS
HCT-15 colon = test system: HCT-15 colon
M14 melanoma = test system: M14 melanoma
CCRF-CEM leukemia = test system: CCRF-CEM leukemia
BT-549 breast = test system: BT-549 breast
PC-3 prostate = test system: PC-3 prostate
CAKI-1 renal = test system: CAKI-1 renal
SK-MEL-28 melanoma = test system: SK-MEL-28 melanoma
A549 NSCLC = test system: A549 NSCLC
SK-OV-3 ovarian = test system: SK-OV-3 ovarian
IGROV1 ovarian = test system: IGROV1 ovarian
UO-31 renal = test system: UO-31 renal
MCF7 breast = test system: MCF7 breast
NCI/ADR-RES ovarian = test system: NCI/ADR-RES ovarian
LOX IMVI melanoma = test system: LOX IMVI melanoma
MDA-MB-231 breast = test system: MDA-MB-231 breast
NCI-H460 lung = test system: NCI-H460 lung
ACHN renal = test system: ACHN renal
DU-145 prostate = test system: DU-145 prostate
NCI-H23 lung = test system: NCI-H23 lung
HCC-2998 colon = test system: HCC-2998 colon
UACC-62 melanoma = test system: UACC-62 melanoma
A498 renal = test system: A498 renal
SF-268 CNS = test system: SF-268 CNS
SR leukemia = test system: SR leukemia
SNB-19 CNS = test system: SNB-19 CNS
MDA-N = test system: MDA-N
UACC-257 melanoma = test system: UACC-257 melanoma
OVCAR-5 ovarian = test system: OVCAR-5 ovarian
HT29 colon = test system: HT29 colon
COLO 205 colon = test system: COLO 205 colon
NCI-H226 lung = test system: NCI-H226 lung

Compound: O=C(NC(N1CCN(c2cc3c(cc2F)c(=O)c(C(=O)O)cn3C2CC2)CC1)(C(F)(F)F)C(F)(F)F)c1ccccc1
- TGI (786-0 renal): > 100 µM
- TGI (HL-60(TB) leukemia): 53.8 µM
- TGI (SNB-75 CNS): > 100 µM
- TGI (K-562 leukemia): > 100 µM
- TGI (T-47D breast): > 100 µM
- TGI (HOP-62 NSCLC): > 100 µM
- TGI (SK-MEL-5 melanoma): 62.9 µM
- TGI (HOP-92 NSCLC): 93.3 µM
- TGI (SK-MEL-2 melanoma): > 100 µM
- TGI (MALME-3M melanoma): 77.5 µM
- TGI (KM12 colon): 84.4 µM
- TGI (SN12C renal): > 100 µM
- TGI (EKVX NSCLC): > 100 µM
- TGI (HCT-116 colon): > 100 µM
- TGI (RPMI-8226 leukemia): 69.9 µM
- TGI (HS 578T breast): > 100 µM
- TGI (OVCAR-8 ovarian): > 100 µM
- TGI (MOLT-4 leukemia): 62 µM
- TGI (TK-10 renal): 87.4 µM
- TGI (OVCAR-4 ovarian): > 100 µM
- TGI (SF-539 CNS): 80.8 µM
- TGI (SW-620 colon): > 100 µM
- TGI (NCI-H522 lung): 38.7 µM
- TGI (OVCAR-3 ovarian): 96.1 µM
- TGI (RXF 393 renal): > 100 µM
- TGI (MDA-MB-435): > 100 µM
- TGI (SF-295 CNS): > 100 µM
- TGI (U251 CNS): > 100 µM
- TGI (HCT-15 colon): 61.6 µM
- TGI (M14 melanoma): > 100 µM
- TGI (CCRF-CEM leukemia): 72.3 µM
- TGI (BT-549 breast): > 100 µM
- TGI (PC-3 prostate): > 100 µM
- TGI (CAKI-1 renal): 85.4 µM
- TGI (SK-MEL-28 melanoma): > 100 µM
- TGI (A549 NSCLC): > 100 µM
- TGI (SK-OV-3 ovarian): 94.1 µM
- TGI (IGROV1 ovarian): > 100 µM
- TGI (UO-31 renal): 81.5 µM
- TGI (MCF7 breast): > 100 µM
- TGI (NCI/ADR-RES ovarian): > 100 µM
- TGI (LOX IMVI melanoma): > 100 µM
- TGI (MDA-MB-231 breast): 70.6 µM
- TGI (NCI-H460 lung): > 100 µM
- TGI (ACHN renal): > 100 µM
- TGI (DU-145 prostate): > 100 µM
- TGI (NCI-H23 lung): 89.2 µM
- TGI (HCC-2998 colon): 66 µM
- TGI (UACC-62 melanoma): > 100 µM
- TGI (A498 renal): 94.4 µM
- TGI (SF-268 CNS): > 100 µM
- TGI (SR leukemia): 87.2 µM
- TGI (SNB-19 CNS): > 100 µM
- TGI (MDA-N): > 100 µM
- TGI (UACC-257 melanoma): 80.8 µM
- TGI (OVCAR-5 ovarian): 65.4 µM
- TGI (HT29 colon): > 100 µM
- TGI (COLO 205 colon): 34.8 µM
- TGI (NCI-H226 lung): > 100 µM

Compound: Cn1c(CCC2(C)Cc3ccccc3C(=O)O2)cc2ccccc2c1=O (stereo not drawn)
- TGI (786-0 renal): > 100 µM
- TGI (HL-60(TB) leukemia): > 100 µM
- TGI (SNB-75 CNS): 58.3 µM
- TGI (T-47D breast): 83.3 µM
- TGI (HOP-62 NSCLC): 48 µM
- TGI (SK-MEL-5 melanoma): 30.9 µM
- TGI (HOP-92 NSCLC): > 100 µM
- TGI (SK-MEL-2 melanoma): 64.9 µM
- TGI (MALME-3M melanoma): > 100 µM
- TGI (KM12 colon): 23.3 µM
- TGI (SN12C renal): > 100 µM
- TGI (RPMI-8226 leukemia): 48 µM
- TGI (HS 578T breast): > 100 µM
- TGI (OVCAR-8 ovarian): > 100 µM
- TGI (OVCAR-4 ovarian): > 100 µM
- TGI (SF-539 CNS): 74.4 µM
- TGI (NCI-H522 lung): 44.2 µM
- TGI (OVCAR-3 ovarian): 54 µM
- TGI (RXF 393 renal): 64.4 µM
- TGI (MDA-MB-435): 41.9 µM
- TGI (SF-295 CNS): > 100 µM
- TGI (U251 CNS): > 100 µM
- TGI (HCT-15 colon): > 100 µM
- TGI (M14 melanoma): 33.5 µM
- TGI (CCRF-CEM leukemia): 27 µM
- TGI (BT-549 breast): 44 µM
- TGI (PC-3 prostate): 46.5 µM
- TGI (CAKI-1 renal): 51.6 µM
- TGI (SK-MEL-28 melanoma): 76.6 µM
- TGI (A549 NSCLC): > 100 µM
- TGI (SK-OV-3 ovarian): 65.7 µM
- TGI (IGROV1 ovarian): 86.6 µM
- TGI (UO-31 renal): 37.7 µM
- TGI (MCF7 breast): 56.3 µM
- TGI (NCI/ADR-RES ovarian): > 100 µM
- TGI (MDA-MB-231 breast): > 100 µM
- TGI (NCI-H460 lung): 76.8 µM
- TGI (DU-145 prostate): 59.8 µM
- TGI (NCI-H23 lung): 83 µM
- TGI (HCC-2998 colon): > 100 µM
- TGI (A498 renal): > 100 µM
- TGI (SR leukemia): > 100 µM
- TGI (SNB-19 CNS): > 100 µM
- TGI (MDA-N): 49.8 µM
- TGI (OVCAR-5 ovarian): > 100 µM
- TGI (COLO 205 colon): 84 µM
- TGI (NCI-H226 lung): 54.7 µM

Compound: Cc1cc2nc3[nH]c4c(Cl)cc(Cl)cc4c3nc2cc1C
- TGI (786-0 renal): > 100 µM
- TGI (HL-60(TB) leukemia): > 100 µM
- TGI (SNB-75 CNS): 42 µM
- TGI (K-562 leukemia): > 100 µM
- TGI (T-47D breast): > 100 µM
- TGI (HOP-62 NSCLC): > 100 µM
- TGI (SK-MEL-5 melanoma): > 100 µM
- TGI (HOP-92 NSCLC): > 100 µM
- TGI (SK-MEL-2 melanoma): > 100 µM
- TGI (MALME-3M melanoma): > 100 µM
- TGI (KM12 colon): > 100 µM
- TGI (SN12C renal): > 100 µM
- TGI (EKVX NSCLC): > 100 µM
- TGI (HCT-116 colon): > 100 µM
- TGI (RPMI-8226 leukemia): > 100 µM
- TGI (HS 578T breast): > 100 µM
- TGI (OVCAR-8 ovarian): > 100 µM
- TGI (MOLT-4 leukemia): > 100 µM
- TGI (TK-10 renal): 56.4 µM
- TGI (OVCAR-4 ovarian): > 100 µM
- TGI (SF-539 CNS): > 100 µM
- TGI (SW-620 colon): > 100 µM
- TGI (NCI-H522 lung): > 100 µM
- TGI (OVCAR-3 ovarian): > 100 µM
- TGI (RXF 393 renal): > 100 µM
- TGI (MDA-MB-435): > 100 µM
- TGI (SF-295 CNS): > 100 µM
- TGI (U251 CNS): > 100 µM
- TGI (HCT-15 colon): > 100 µM
- TGI (M14 melanoma): > 100 µM
- TGI (CCRF-CEM leukemia): > 100 µM
- TGI (BT-549 breast): > 100 µM
- TGI (PC-3 prostate): > 100 µM
- TGI (CAKI-1 renal): > 100 µM
- TGI (SK-MEL-28 melanoma): > 100 µM
- TGI (A549 NSCLC): > 100 µM
- TGI (SK-OV-3 ovarian): > 100 µM
- TGI (IGROV1 ovarian): > 100 µM
- TGI (UO-31 renal): > 100 µM
- TGI (MCF7 breast): > 100 µM
- TGI (NCI/ADR-RES ovarian): > 100 µM
- TGI (LOX IMVI melanoma): > 100 µM
- TGI (MDA-MB-231 breast): > 100 µM
- TGI (NCI-H460 lung): > 100 µM
- TGI (ACHN renal): > 100 µM
- TGI (DU-145 prostate): > 100 µM
- TGI (NCI-H23 lung): > 100 µM
- TGI (UACC-62 melanoma): > 100 µM
- TGI (A498 renal): > 100 µM
- TGI (SF-268 CNS): > 100 µM
- TGI (SR leukemia): > 100 µM
- TGI (SNB-19 CNS): > 100 µM
- TGI (MDA-N): > 100 µM
- TGI (OVCAR-5 ovarian): > 100 µM
- TGI (HT29 colon): > 100 µM
- TGI (COLO 205 colon): > 100 µM
- TGI (NCI-H226 lung): > 100 µM
